In PubChem BioAssay AID1259407 (Chemical Carcinogenesis Research Information System (CCRIS), 2018):
Calls of active or inactive are those of the source. How the calls were made is not given here.

Tested on: CCRIS mutagenicity, Ames/micronucleus/aberration tests
Experiment: CCRIS mutagenicity studies
[1] = Test System: AMES SALMONELLA TYPHIMURIUM, Strain/Indicator: TA98, Metabolic Activation: NONE, Method: STANDARD PLATE
[2] = Test System: AMES SALMONELLA TYPHIMURIUM, Strain/Indicator: TA100, Metabolic Activation: NONE, Method: STANDARD PLATE
[3] = Test System: AMES SALMONELLA TYPHIMURIUM, Strain/Indicator: TA1535, Metabolic Activation: NONE, Method: STANDARD PLATE
[4] = Test System: AMES SALMONELLA TYPHIMURIUM, Strain/Indicator: TA1537, Metabolic Activation: NONE, Method: STANDARD PLATE
[5] = Test System: AMES SALMONELLA TYPHIMURIUM, Strain/Indicator: TA98, Metabolic Activation: NONE, Method: PREINCUBATION
[6] = Test System: AMES SALMONELLA TYPHIMURIUM, Strain/Indicator: TA100, Metabolic Activation: NONE, Method: PREINCUBATION

CN(C)CCCNc1c2ccccc2nc2ccc([N+](=O)[O-])cc12
mutagenic call (Test System: AMES SALMONELLA TYPHIMURIUM, Strain/Indicator: TA98(1,8-DNP6), Metabolic Activation: NONE, Method: STANDARD PLATE): active; positive | mutagenic call (Test System: AMES SALMONELLA TYPHIMURIUM, Strain/Indicator: TA98(1,8-DNP6), Metabolic Activation: RAT, LIVER, S-9, Method: STANDARD PLATE): active; positive | mutagenic call (Test System: AMES SALMONELLA TYPHIMURIUM, Strain/Indicator: TA98(NR), Metabolic Activation: NONE, Method: STANDARD PLATE): active; positive | mutagenic call (Test System: AMES SALMONELLA TYPHIMURIUM, Strain/Indicator: TA98(NR), Metabolic Activation: RAT, LIVER, S-9, Method: STANDARD PLATE): active; positive | mutagenic call [1]: active; positive | mutagenic call (Test System: AMES SALMONELLA TYPHIMURIUM, Strain/Indicator: TA98, Metabolic Activation: RAT, LIVER, S-9, Method: STANDARD PLATE): active; positive | mutagenic call [2]: active; positive | mutagenic call [3]: active; positive | mutagenic call [4]: active; positive | mutagenic call (Test System: AMES SALMONELLA TYPHIMURIUM, Strain/Indicator: TA1537 PKM101, Metabolic Activation: NONE, Method: STANDARD PLATE): active; positive | mutagenic call (Test System: AMES SALMONELLA TYPHIMURIUM, Strain/Indicator: TA1538, Metabolic Activation: NONE, Method: STANDARD PLATE): active; positive | mutagenic call (Test System: CHINESE HAMSTER V-79, Strain/Indicator: V-79/6-THIOGUANINE, Metabolic Activation: NONE, Method: STANDARD PLATE): inactive; negative | mutagenic call (Test System: CHINESE HAMSTER V-79, Strain/Indicator: V-79/OUABAIN, Metabolic Activation: NONE, Method: STANDARD PLATE): inactive; negative | mutagenic call (Test System: Escherichia coli, Strain/Indicator: CC107 (G6 to G7 frameshifts), Metabolic Activation: None, Method: Modified preincubation): active; positive | mutagenic call (Test System: Escherichia coli, Strain/Indicator: CC108 (G6 to G5 frameshifts), Metabolic Activation: None, Method: Modified preincubation): active; positive | mutagenic call (Test System: Escherichia coli, Strain/Indicator: CC109 (CG5 to CG4 frameshifts), Metabolic Activation: None, Method: Modified preincubation): active; positive | mutagenic call (Test System: Escherichia coli, Strain/Indicator: CC111 (A7 to A6 frameshifts), Metabolic Activation: None, Method: Modified preincubation): active; positive

COc1cc2c3c(c1O)-c1cc4c(cc1C[C@@H]3N(C)CC2)OCO4
mutagenic call (Test System: AMES SALMONELLA TYPHIMURIUM, Strain/Indicator: TA100, Metabolic Activation: RAT, LIVER, S-9, PHENOBARBITAL AND BETA-NAPHTHOFLAVONE, Method: PREINCUBATION): inactive; negative

C[C@]12CC[C@H](OC(=O)/C=C/c3cccc(N(CCCl)CCCl)c3)C[C@@H]1CC[C@@H]1[C@@H]2CC[C@]2(C)NC(=O)CC[C@@H]12
mutagenic call [1]: inactive; negative | mutagenic call (Test System: AMES SALMONELLA TYPHIMURIUM, Strain/Indicator: TA98, Metabolic Activation: RAT, LIVER, S-9, AROCLOR 1254, Method: STANDARD PLATE): inactive; negative | mutagenic call [2]: inactive; negative | mutagenic call (Test System: AMES SALMONELLA TYPHIMURIUM, Strain/Indicator: TA100, Metabolic Activation: RAT, LIVER, S-9, AROCLOR 1254, Method: STANDARD PLATE): inactive; negative | mutagenic call [3]: inactive; negative | mutagenic call (Test System: AMES SALMONELLA TYPHIMURIUM, Strain/Indicator: TA1535, Metabolic Activation: RAT, LIVER, S-9, AROCLOR 1254, Method: STANDARD PLATE): inactive; negative | mutagenic call [4]: inactive; negative | mutagenic call (Test System: AMES SALMONELLA TYPHIMURIUM, Strain/Indicator: TA1537, Metabolic Activation: RAT, LIVER, S-9, AROCLOR 1254, Method: STANDARD PLATE): inactive; negative

O=[N+]([O-])c1cccc(S(=O)(=O)O)c1
mutagenic call [5]: inactive; negative | mutagenic call (Test System: AMES SALMONELLA TYPHIMURIUM, Strain/Indicator: TA98, Metabolic Activation: RAT, LIVER, S-9, KANECHLOR 500, Method: PREINCUBATION): inactive; negative | mutagenic call [6]: inactive; negative | mutagenic call (Test System: AMES SALMONELLA TYPHIMURIUM, Strain/Indicator: TA100, Metabolic Activation: RAT, LIVER, S-9, KANECHLOR 500, Method: PREINCUBATION): inactive; negative

CS(=O)(=O)OC[C@H](O)[C@@H](O)COS(C)(=O)=O
mutagenic call [2]: active; positive | mutagenic call [3]: active; positive | mutagenic call (Test System: AMES SALMONELLA TYPHIMURIUM, Strain/Indicator: TA7004, Metabolic Activation: NONE, Method: STANDARD PLATE): active; positive | mutagenic call (Test System: AMES SALMONELLA TYPHIMURIUM, Strain/Indicator: TA7005, Metabolic Activation: NONE, Method: STANDARD PLATE): inactive; negative | mutagenic call (Test System: CHINESE HAMSTER OVARY, Strain/Indicator: AS52/6-THIOGUANINE, Metabolic Activation: NONE): active; positive

CN(C)c1ccc(/C=C/c2ccccc2)cc1
mutagenic call (Test System: AMES SALMONELLA TYPHIMURIUM, Strain/Indicator: TA98, Metabolic Activation: HAMSTER, LIVER, S-9, AROCLOR 1254, Method: STANDARD PLATE): active; positive | mutagenic call (Test System: AMES SALMONELLA TYPHIMURIUM, Strain/Indicator: TA98, Metabolic Activation: HAMSTER, LIVER, S-9, Method: PREINCUBATION (PRIVAL METHOD)): active; positive | mutagenic call (Test System: AMES SALMONELLA TYPHIMURIUM, Strain/Indicator: TA98, Metabolic Activation: RAT, LIVER, S-9, AROCLOR 1254, HAMSTER, LIVER, S-9, AROCLOR 1254, Method: STANDARD PLATE): active; positive | mutagenic call (Test System: AMES SALMONELLA TYPHIMURIUM, Strain/Indicator: TA98, Metabolic Activation: RAT, LIVER, S-9, KC500 OR PHENOBARBITAL, Method: LIQUID SUSPENSION): active; positive | mutagenic call (Test System: AMES SALMONELLA TYPHIMURIUM, Strain/Indicator: TA100, Metabolic Activation: HAMSTER, LIVER, S-9, AROCLOR 1254 (10%), Method: STANDARD PLATE): active; positive | mutagenic call (Test System: AMES SALMONELLA TYPHIMURIUM, Strain/Indicator: TA100, Metabolic Activation: HAMSTER, LIVER, S-9, Method: PREINCUBATION (PRIVAL METHOD)): active; positive | mutagenic call (Test System: AMES SALMONELLA TYPHIMURIUM, Strain/Indicator: TA100, Metabolic Activation: RAT, LIVER, S-9, AROCLOR 1254, HAMSTER, LIVER, S-9, AROCLOR 1254, Method: STANDARD PLATE): active; positive | mutagenic call (Test System: AMES SALMONELLA TYPHIMURIUM, Strain/Indicator: TA100, Metabolic Activation: RAT, LIVER, S-9, KC500 OR PHENOBARBITAL, Method: LIQUID SUSPENSION): active; positive | mutagenic call (Test System: AMES SALMONELLA TYPHIMURIUM, Strain/Indicator: TA100, Metabolic Activation: RAT, LIVER, S-9, PHENOBARBITAL, Method: STANDARD PLATE): active; positive | mutagenic call (Test System: AMES SALMONELLA TYPHIMURIUM, Strain/Indicator: TA1538, Metabolic Activation: RAT, LIVER, S-9, AROCLOR 1254, HAMSTER, LIVER, S-9, AROCLOR 1254, Method: STANDARD PLATE): active; positive | mutagenic call (Test System: AMES SALMONELLA TYPHIMURIUM, Strain/Indicator: TA1538, Metabolic Activation: RAT, LIVER, S-9, PHENOBARBITAL, Method: STANDARD PLATE): active; positive | mutagenic call (Test System: Mouse lymphoma, Strain/Indicator: L5178Y (tk+/tk-), Metabolic Activation: None, Method: Suspension/plate): inactive; inconclusive (pevious evaluation negative) | mutagenic call (Test System: Mouse lymphoma, Strain/Indicator: L5178Y (tk+/tk-), Metabolic Activation: Rat, Liver, S-9, Aroclor 1254, Method: Suspension/plate): active; positive

c1cnc2ccc3c(c2c1)CC[C@@H]1O[C@H]31
mutagenic call [2]: inactive; negative

CC(=O)[C@]1(O)Cc2c(O)c3c(c(O)c2[C@@H](O[C@H]2C[C@H](N)[C@H](OC(C[C@H](C)O)O[C@@H](C)C=O)[C@H](C)O2)C1)C(=O)c1c(O)cccc1C3=O (stereo partly drawn)
mutagenic call [5]: active; positive | mutagenic call (Test System: AMES SALMONELLA TYPHIMURIUM, Strain/Indicator: TA98, Metabolic Activation: RAT, LIVER, S-9, Method: PREINCUBATION): active; positive | mutagenic call (Test System: AMES SALMONELLA TYPHIMURIUM, Strain/Indicator: TA98, Metabolic Activation: S-9, Method: PREINCUBATION): active; positive | mutagenic call [6]: active; positive | mutagenic call (Test System: AMES SALMONELLA TYPHIMURIUM, Strain/Indicator: TA100, Metabolic Activation: RAT, LIVER, S-9, Method: PREINCUBATION): active; positive | mutagenic call (Test System: AMES SALMONELLA TYPHIMURIUM, Strain/Indicator: TA100, Metabolic Activation: S-9, Method: PREINCUBATION): active; positive | mutagenic call (Test System: CHINESE HAMSTER V-79, Strain/Indicator: V-79/6-THIOGUANINE, Metabolic Activation: NONE): active; positive | mutagenic call (Test System: CHINESE HAMSTER V-79, Strain/Indicator: V-79/6-THIOGUANINE, Metabolic Activation: NONE, Method: REPLATING): active; positive

CCCCl
mutagenic call (End Point: In vitro micronucleus, Test System: Chinese Hamster Ovary (CHO-WBL) cells, Metabolic Activation: None): inactive; negative
